{
  "source": "patent US8303962B2",
  "about": "“Antibacterial and antifungal peptides” (C3 Jian, Inc., priority 2009, dated 2012)",
  "key": {"M. furfur ATCC 14521": {"test_system": "M. furfur ATCC 14521", "settings": "5 μM peptide, after 15 min of treatment, 30° C., 10^6 cells/ml, CFU vs no-peptide control", "protocol": "FIG. 1. Killing kinetics of PF-S028 L and D versions against M. furfur were determined using standard time-kill methods previously detailed (Eckert et al. (2006) Antimicrob Agents Chemother., 50: 1480-1488). Briefly, a log phase culture of M. furfur ATCC 14521 was diluted to 10^6 cells/ml in ATCC medium 1072. To the reaction tubes 5 μM of either PF-S028 L or PF-S028 D were added. A reaction tube to which 4 μl of 50% methanol served as the negative control. Reaction tubes were stored at 30° C. and at indicated intervals an aliquot was removed from the reaction tube and placed in a recovery tube where peptide was removed by dilution. An aliquot from the recovery tube was plated on ATCC medium 1072 agar plates and incubated at 30° C. until visible colonies formed. Colony forming units were calculated for the negative control (no peptide), PF-S028 L, and PF-S028 D treated cultures.\nIn some cases killing kinetic experiments were then conducted. Killing kinetics of PF-S028 L and D versions against M. furfur were determined as described in Eckert et al. (2006) Antimicrob Agents Chemother., 50: 1480-1488. Briefly, a log phase culture of M. furfur ATCC 14521 was diluted to 10^6 cells/ml in ATCC medium 1072. To the reaction tubes 5 μM of either PF-S028 L or PF-S028 D were added. […] Colony forming units were calculated for the negative control (no peptide), PF-S028 L, and PF-S028 D treated cultures."}, "A. niger": {"test_system": "A. niger", "assay_type": "cell-based, Aspergillus niger", "protocol": "(§1) In certain embodiments the MIC assays are performed as described herein in the Examples. For each organism, the media and growth conditions utilized is detailed in Table 8.\n(§2) In certain embodiments the MIC assays are performed as follows: For each organism, the media and growth conditions utilized is detailed in Table 8."}, "B. subtilis": {"test_system": "B. subtilis", "assay_type": "cell-based, Bacillus subtilis", "protocol": "as §1, §2"}, "MRSA": {"test_system": "MRSA", "assay_type": "cell-based, Methicillin-resistant Staphylococcus aureus", "protocol": "as §1, §2"}, "S. pneumoniae": {"test_system": "S. pneumoniae", "assay_type": "cell-based, Streptococcus pneumoniae", "settings": "TSB supplemented with 5% yeast extract, 37° C., 10% CO2", "protocol": "as §1, §2"}, "P. gingivalis": {"test_system": "P. gingivalis", "assay_type": "cell-based, Porphyromonas gingivalis", "settings": "Columbia broth, 37° C., anaerobic", "protocol": "as §1, §2"}, "S. epidermidis": {"test_system": "S. epidermidis", "assay_type": "cell-based", "settings": "BHI supplemented with 0.25% glucose, 37° C., aerobic", "protocol": "as §1, §2"}, "T. rubrum": {"test_system": "T. rubrum", "assay_type": "cell-based, Trichophyton rubrum", "settings": "T. rubrum; Potato Dextrose Agar, 25° C., aerobic", "protocol": "as §1, §2"}, "M. furfur": {"test_system": "M. furfur", "assay": "MIC assay, M. furfur", "assay_type": "cell-based, Malassezia furfur", "settings": "ATCC medium 1072, 37° C., aerobic", "protocol": "as §1, §2"}, "P. aeruginosa": {"test_system": "P. aeruginosa", "assay_type": "cell-based, Pseudomonas aeruginosa", "settings": "MH, 37° C., aerobic", "protocol": "as §1, §2"}, "S. mutans": {"test_system": "S. mutans", "assay_type": "cell-based, Streptococcus mutans", "settings": "TH supplemented with 1% sucrose, 37° C., anaerobic", "protocol": "as §1, §2"}, "A. baumannii": {"test_system": "A. baumannii", "assay_type": "cell-based, Acinetobacter baumannii", "settings": "LB, 30° C., anaerobic", "protocol": "as §1, §2"}},
  "note": "Like-named read-outs stand apart in the source and are kept apart here. Peptide text beside a SMILES is read from it.",
  "data": [
    {"smiles": "CC[C@H](C)[C@H](NC(=O)[C@@H](NC(=O)[C@H](CO)NC(=O)CN)C(C)C)C(=O)N[C@@H](CCCCN)C(=O)N[C@@H](CCCCN)C(=O)N[C@@H](CCCNC(=N)N)C(=O)N[C@@H](CCCNC(=N)N)C(=O)N[C@@H](CCCCN)C(=O)N[C@@H](CCCNC(=N)N)C(=O)N[C@@H](CCSC)C(=O)N[C@@H](CO)C(=O)N[C@@H](CCCCN)C(=O)N[C@@H](CCCCN)C(=O)N[C@@H](CCCCN)C(=O)N[C@@H](Cc1c[nH]cn1)C(=O)N[C@@H](CCCNC(=N)N)C(=O)N[C@@H](CCCCN)C(=O)N[C@@H](CCSC)C(=O)N[C@@H](CC(C)C)C(=O)N[C@@H](CCCNC(=N)N)C(=O)N[C@@H](CCCNC(=N)N)C(=O)N[C@H](C(=O)N[C@@H](CCCNC(=N)N)C(=O)N[C@H](C(=O)N[C@@H](CCC(N)=O)C(=O)N[C@@H](CCCNC(=N)N)C(=O)N[C@@H](CCCNC(=N)N)C(=O)N[C@@H](CCCCN)C(=O)N[C@@H](CC(C)C)C(=O)NCC(=O)N[C@@H](CCCCN)C(=O)O)C(C)C)[C@@H](C)O", "note": "[PF-S028 L]", "values": [
      {"measurement": "M. furfur killed", "setting": "M. furfur ATCC 14521", "result": 39, "unit": "%"}
    ]},
    {"smiles": "CC[C@H](C)[C@H](NC(=O)[C@H](CCCNC(=N)N)NC(=O)[C@H](CCCNC(=N)N)NC(=O)[C@H](CCCNC(=N)N)NC(=O)[C@@H](NC(=O)[C@H](CCSC)NC(=O)[C@H](CC(=O)O)NC(=O)[C@H](C)NC(=O)[C@H](CCSC)NC(=O)[C@H](C)NC(=O)[C@@H](NC(=O)[C@H](CC(C)C)NC(=O)[C@H](CCCCN)NC(=O)[C@H](CO)NC(=O)[C@H](CCC(=O)O)NC(=O)[C@@H](N)CCCNC(=N)N)[C@@H](C)CC)[C@@H](C)CC)C(=O)O", "note": "[PF-545] (H-RESKLIAMADMIRRRI-OH; N-terminus and C-terminus assumed)", "values": [
      {"measurement": "MIC", "setting": "A. niger", "result": 50, "unit": "µM"},
      {"measurement": "MIC", "setting": "B. subtilis", "result": 25, "unit": "µM"},
      {"measurement": "MIC", "setting": "MRSA", "result": 50, "unit": "µM"}
    ]},
    {"smiles": "CC(C)C[C@H](NC(=O)CNC(=O)[C@@H](N)CC(C)C)C(=O)N[C@H](C(=O)N[C@@H](C)C(=O)NCC(=O)N[C@H](C(=O)N[C@@H](C)C(=O)N[C@@H](Cc1ccc(O)cc1)C(=O)N[C@@H](C)C(=O)N[C@@H](C)C(=O)N[C@@H](CCC(N)=O)C(=O)N1CCC[C@H]1C(=O)N[C@H](C(=O)N[C@@H](CC(N)=O)C(=O)N[C@@H](CCC(N)=O)C(=O)N1CCC[C@H]1C(=O)N[C@H](C(=O)N[C@@H](CC(N)=O)C(=O)N[C@@H](CCC(N)=O)C(=O)N1CCC[C@H]1C(=O)N[C@H](C(=O)N[C@@H](CC(N)=O)C(=O)N[C@@H](CCC(N)=O)C(=O)N1CCC[C@H]1C(=O)N[C@H](C(=O)N[C@@H](CC(N)=O)C(=O)N[C@@H](CCC(N)=O)C(=O)N1CCC[C@H]1C(=O)N[C@H](C(=O)N[C@@H](CC(N)=O)C(=O)N[C@@H](CCC(N)=O)C(=O)N1CCC[C@H]1C(=O)N[C@H](C(=O)N[C@@H](CC(N)=O)C(=O)N[C@@H](CCC(N)=O)C(=O)N1CCC[C@H]1C(=O)N[C@@H](CCCNC(=N)N)C(=O)N[C@@H](Cc1c[nH]c2ccccc12)C(=O)O)[C@@H](C)O)[C@@H](C)O)[C@@H](C)O)[C@@H](C)O)[C@@H](C)O)[C@@H](C)O)C(C)C)[C@@H](C)O", "note": "[PF-520] (H-LGLTAGVAYAAQPTNQPTNQPTNQPTNQPTNQPTNQPRW-OH; N-terminus and C-terminus assumed)", "values": [
      {"measurement": "MIC", "setting": "S. pneumoniae", "result": 50, "unit": "µM"}
    ]},
    {"smiles": "CC[C@H](C)[C@H](NC(=O)[C@@H](NC(=O)[C@H](CO)NC(=O)CN)C(C)C)C(=O)N[C@@H](CCCCN)C(=O)N[C@@H](CCCCN)C(=O)N[C@@H](CCCNC(=N)N)C(=O)N[C@@H](CCCNC(=N)N)C(=O)N[C@@H](CCCCN)C(=O)N[C@@H](CCCNC(=N)N)C(=O)N[C@@H](CCSC)C(=O)N[C@@H](CO)C(=O)N[C@@H](CCCCN)C(=O)N[C@@H](CCCCN)C(=O)N[C@@H](CCCCN)C(=O)N[C@@H](Cc1c[nH]cn1)C(=O)N[C@@H](CCCNC(=N)N)C(=O)N[C@@H](CCCCN)C(=O)N[C@@H](CCSC)C(=O)N[C@@H](CC(C)C)C(=O)N[C@@H](CCCNC(=N)N)C(=O)N[C@@H](CCCNC(=N)N)C(=O)N[C@H](C(=O)N[C@@H](CCCNC(=N)N)C(=O)N[C@H](C(=O)N[C@@H](CCC(N)=O)C(=O)N[C@@H](CCCNC(=N)N)C(=O)N[C@@H](CCCNC(=N)N)C(=O)N[C@@H](CCCCN)C(=O)N[C@@H](CC(C)C)C(=O)NCC(=O)N[C@@H](CCCCN)C(=O)O)C(C)C)[C@@H](C)O", "note": "[PF-S028]", "values": [
      {"measurement": "MIC", "setting": "P. gingivalis", "result": 25, "unit": "µM"},
      {"measurement": "MIC", "setting": "S. epidermidis", "result": 25, "unit": "µM"},
      {"measurement": "MIC", "setting": "T. rubrum", "result": 50, "unit": "µM"},
      {"measurement": "MIC", "setting": "M. furfur", "result": 2.5, "unit": "µM"},
      {"measurement": "MIC", "setting": "P. aeruginosa", "result": 50, "unit": "µM"},
      {"measurement": "MIC", "setting": "S. mutans", "result": 50, "unit": "µM"}
    ]},
    {"smiles": "CC[C@@H](C)[C@@H](NC(=O)[C@H](NC(=O)[C@@H](CO)NC(=O)CN)C(C)C)C(=O)N[C@H](CCCCN)C(=O)N[C@H](CCCCN)C(=O)N[C@H](CCCNC(=N)N)C(=O)N[C@H](CCCNC(=N)N)C(=O)N[C@H](CCCCN)C(=O)N[C@H](CCCNC(=N)N)C(=O)N[C@H](CCSC)C(=O)N[C@H](CO)C(=O)N[C@H](CCCCN)C(=O)N[C@H](CCCCN)C(=O)N[C@H](CCCCN)C(=O)N[C@H](Cc1c[nH]cn1)C(=O)N[C@H](CCCNC(=N)N)C(=O)N[C@H](CCCCN)C(=O)N[C@H](CCSC)C(=O)N[C@H](CC(C)C)C(=O)N[C@H](CCCNC(=N)N)C(=O)N[C@H](CCCNC(=N)N)C(=O)N[C@@H](C(=O)N[C@H](CCCNC(=N)N)C(=O)N[C@@H](C(=O)N[C@H](CCC(N)=O)C(=O)N[C@H](CCCNC(=N)N)C(=O)N[C@H](CCCNC(=N)N)C(=O)N[C@H](CCCCN)C(=O)N[C@H](CC(C)C)C(=O)NCC(=O)N[C@H](CCCCN)C(=O)O)C(C)C)[C@H](C)O", "note": "[PF-S028 D]", "values": [
      {"measurement": "M. furfur killed", "setting": "M. furfur ATCC 14521", "result": "over 99%"}
    ]},
    {"smiles": "CC[C@H](C)[C@H](NC(=O)[C@H](CCCNC(=N)N)NC(=O)[C@@H](NC(=O)[C@H](CCCCN)NC(=O)[C@H](CCCCN)NC(=O)[C@H](CC(C)C)NC(=O)[C@H](CC(C)C)NC(=O)[C@H](CCCCN)NC(=O)[C@H](CCCNC(=N)N)NC(=O)[C@H](Cc1c[nH]cn1)NC(=O)[C@H](CCCCN)NC(=O)[C@H](CCCCN)NC(=O)[C@H](CCCCN)NC(=O)[C@H](C)NC(=O)[C@H](CCSC)NC(=O)[C@H](CCCNC(=N)N)NC(=O)[C@H](CCCCN)NC(=O)[C@H](CCCNC(=N)N)NC(=O)[C@H](CCCNC(=N)N)NC(=O)[C@H](CCCCN)NC(=O)[C@H](CCCCN)NC(=O)[C@@H](NC(=O)[C@@H](NC(=O)[C@H](CO)NC(=O)CN)C(C)C)[C@@H](C)CC)[C@@H](C)O)C(=O)N[C@@H](CCC(N)=O)C(=O)N[C@@H](CCCNC(=N)N)C(=O)N[C@@H](CCCNC(=N)N)C(=O)N[C@@H](CCCNC(=N)N)C(=O)N[C@@H](C)C(=O)NCC(=O)N[C@@H](CCCCN)C(=O)O", "note": "[PF-527] (H-GSVIKKRRKRMAKKKHRKLLKKTRIQRRRAGK-OH; N-terminus and C-terminus assumed)", "values": [
      {"measurement": "MIC", "setting": "A. niger; A. niger, Potato Dextrose Agar, 25° C., aerobic", "result": 50, "unit": "µM"},
      {"measurement": "MIC", "setting": "T. rubrum", "result": 25, "unit": "µM"}
    ]},
    {"smiles": "CC[C@H](C)[C@H](NC(=O)CNC(=O)[C@@H](N)CCSC)C(=O)N[C@H](C(=O)N[C@@H](C)C(=O)NCC(=O)N[C@H](C(=O)N[C@H](C(=O)N[C@@H](CCCCN)C(=O)N[C@@H](Cc1ccccc1)C(=O)N[C@H](C(=O)N[C@@H](CCCCN)C(=O)NCC(=O)N[C@@H](CC(C)C)C(=O)N[C@H](C(=O)N[C@@H](CCC(=O)O)C(=O)N[C@@H](CCCCN)C(=O)N[C@@H](Cc1ccccc1)C(=O)N[C@H](C(=O)NCC(=O)N[C@@H](CCCCN)C(=O)O)[C@@H](C)O)[C@@H](C)CC)[C@@H](C)CC)[C@@H](C)CC)[C@@H](C)CC)[C@@H](C)CC", "note": "[PF-006]", "values": [
      {"measurement": "MIC", "setting": "B. subtilis; B. subtilis, BHI, 30° C., aerobic", "result": 25, "unit": "µM"},
      {"measurement": "MIC", "setting": "A. baumannii", "result": 50, "unit": "µM"},
      {"measurement": "MIC", "setting": "MRSA; MRSA, BHI supplemented with 2% glucose, 37° C., aerobic", "result": 50, "unit": "µM"}
    ]}
  ]
}
